Experimental data: publication PMC8311463, “Cyclotides Isolated From Violet Plants of Cameroon Are Inhibitors of Human Prolyl Oligopeptidase” (Frontiers in Pharmacology, 2021)
Bridge positions count the residues as written; N and C are the ends. Peptide text beside a SMILES is read from it. * marks the point of attachment. AMC = Cc1cc(=O)oc2cc(N*)ccc12; Cbz = O=C(OCc1ccccc1)*

Experiments:
[1] = tested on: POP; parameters: method as in 3 sources, ref Hellinger et al., 2015a ||| ref Tarrago et al., 2007; Tarragó et al., 2008; Cahlíková et al., 2015 ||| ref Retzl et al., 2020; conditions: cited from earlier work; for POP inhibition (in words): alkaloids and flavonoids, ref Tarrago et al., 2007, Tarragó et al., 2008, Cahlíková et al., 2015
Experimental: Previous phytochemical studies identified natural products as inhibitors for POP such as small molecule entities and natural peptides. […] A sequence logo was prepared to compare the amino acid positions for conserved residues or to identify variable positions (Figure 7C).

[2] = biological target: T1, human POP (Homo sapiens, UniProt P48147); assay: POP inhibition assay, Z-Gly-Pro-amino-coumarin substrate; assay type: biochemical
T1 construct: the full-length untagged protein was obtained after site-specific cleavage; GST (N, cleaved yes); made in house; host or cells: Escherichia coli BL21 (D3 [sic] strain)
T1 sequence (P48147 1-710): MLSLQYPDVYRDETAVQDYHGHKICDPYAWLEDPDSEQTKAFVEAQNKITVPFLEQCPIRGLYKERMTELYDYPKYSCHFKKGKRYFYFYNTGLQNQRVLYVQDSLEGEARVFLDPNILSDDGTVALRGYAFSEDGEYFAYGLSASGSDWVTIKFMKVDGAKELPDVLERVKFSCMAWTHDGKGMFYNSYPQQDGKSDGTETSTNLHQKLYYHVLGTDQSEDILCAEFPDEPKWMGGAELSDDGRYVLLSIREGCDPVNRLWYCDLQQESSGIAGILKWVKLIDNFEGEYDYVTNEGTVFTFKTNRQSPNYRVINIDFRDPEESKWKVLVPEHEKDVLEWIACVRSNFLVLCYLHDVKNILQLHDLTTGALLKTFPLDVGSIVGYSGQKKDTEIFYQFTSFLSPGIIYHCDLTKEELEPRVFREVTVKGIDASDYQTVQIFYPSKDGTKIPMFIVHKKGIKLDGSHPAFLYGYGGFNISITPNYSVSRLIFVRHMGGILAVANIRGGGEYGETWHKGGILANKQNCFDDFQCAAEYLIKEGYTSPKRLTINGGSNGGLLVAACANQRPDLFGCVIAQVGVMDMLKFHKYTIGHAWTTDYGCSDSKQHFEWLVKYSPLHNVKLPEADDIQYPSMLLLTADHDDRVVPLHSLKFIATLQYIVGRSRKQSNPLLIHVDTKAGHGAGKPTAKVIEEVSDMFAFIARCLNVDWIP
Experimental: The POP inhibition assays were carried out similarly as recently described ([Hellinger et al., 2015a]; [Retzl et al., 2020]) using a bacterial expressed POP enzyme. […] For enzyme inhibition assays human POP (50 ng/well) was incubated in assay buffer (20 mM Hepes pH 7.2, 150 mM NaCl, 1 mM EDTA, 0.5 mM DTT) together with substrate Z-Gly-Pro-amino-coumarin (final concentration 45 µM) at 37°C for 60 min. […] All experiments were performed in 96-microtiter black bottom plates. Concentration-response inhibition assays were performed with [S] = K m, which is considered a suitable condition for evaluating samples of unknown inhibition mode (e.g. competitive, noncompetitive or uncompetitive reversible inhibition). The protease activity was quantified as fluorescence from the proteolytically cleaved amino-coumarin fluorophore with excitation 380 nm and emission 420 nm on a Biotek Synergy H4 plate reader. The fluorogenic substrate provide elevated fluorescence by the delocalization of electrons after the amide bond cleavage and release of the 7 amino coumarin moiety. All samples for protease inhibition assays were prepared in ddH2O. Concentration-dependent inhibition studies were performed with the peptide enriched extracts (2–1,000 μg/ml) or isolated peptides (0.1–60 µM). For bioassay-guided isolation HPLC fractions were assayed for POP inhibition with three concentrations (4, 20 and 100 μg/ml). Kinetic measurements were carried out to obtain initial velocities in the presence of sample (vi) or enzyme alone (vo) ([Arnison et al., 2013]). The percent remaining POP activity was calculated as I = (vi/vo)*100. A substrate background was used for correction of all measurements. KYP-2047, a specific POP inhibitor, was used as positive control in the assays. […] Four parameter non-linear regression curve fits were obtained using GraphPad Prism v5.0 fitting algorithms with equation Y=Bottom + (Top-Bottom)/(1 + 10^((LogIC50-X)*Hill Slope)) in which X is the log dose and Y the measured response.

[3] = biological target: T1, human POP; assay: POP enzyme kinetics (Michaelis-Menten) with Z-Gly-Pro-amino-coumarin; assay type: biochemical; conditions: substrate Z-Gly-Pro-amino-coumarin, optimized assay buffer 20 mM Hepes pH 7.2, 150 mM NaCl, 1 mM EDTA, 0.5 mM DTT
Experimental: The POP inhibition assays were carried out similarly as recently described ([Hellinger et al., 2015a]; [Retzl et al., 2020]) using a bacterial expressed POP enzyme. Human POP cDNA (accession NM:002726.4) was inserted into a pGEX-6P1 expression vector using the EcoRI and XhoI sites (Genescript, Leiden, Netherlands) and expressed in Escherichia coli (BL21 D3 strain). Protein expression was induced by addition of 0.3–0.5 mM isopropyl-β-D-thiogalactopyranoside (ProteinArk, Rotterdam, Netherlands) at an optical density (OD600) between 0.6 and 0.8 to the bacterial culture and incubated at 25°C under constant shaking. The protein was harvested at an OD600 between 1.4 and 1.5. POP was purified via GST-affinity capture beads. […] The protein concentration was determined with bicinchoninic acid assay (ThermoFisher). […] The protease activity was quantified as fluorescence from the proteolytically cleaved amino-coumarin fluorophore with excitation 380 nm and emission 420 nm on a Biotek Synergy H4 plate reader. The fluorogenic substrate provide elevated fluorescence by the delocalization of electrons after the amide bond cleavage and release of the 7 amino coumarin moiety. […] The percent remaining POP activity was calculated as I = (vi/vo)*100. […]

[4] = Precipitation of the substrate in POP assay; assay type: physicochemical; conditions: optimized POP assay conditions, tested between 0.766 µM and 300 µM
Experimental: Supplementary Figure S3. POP purification and optimization of the assay system.Human POP wa s expressed in E. coliand purified as functional protease. The purification steps were analyzed using a Coomassie stained protein gel. Purifi ed POP enzyme is shown in lane 7 after site-specific cleavage with PreS cissi on protease and rel ease of the untagg ed protein (A). Different assay conditions were tested to study the effect of buffer sy stems and pH dependency (B,C), the use of organi c solve nts (D), DTT (E) and NaCl (F) concentration on POP enzyme activ ity. For calculation of POP activ ity the slope in the li near range between 5 and 35 mi n of kinetic measurements were used. With the optim ized conditionsZ-Gly-Pro-amino-coumarin concentrations between 0.766 µM and 300 µM were tested in a kinetic measurement and a con centration dependent increase in sig nal was observed. Above 150 µM substrate concentration no further increase in sig nal was measured due to preci pitation of the substra te (G). Al l data are shown as mean of three biologi cal experim ents and error is shown as ±SEM.
(1 picture or pasted object on this page, not shown here)

[5] = tested on: POP; conditions: clinical phase 1 and 2; ref López et al., 2013; cited from earlier work
From the text: Ethnomedicinal studies have shown beneficial effects of cyclotide expressing plants in few disease conditions with relationship to POP. For instance, African traditional medicine describes the therapeutic application of Rinorea dentata (P. Beauv.) Kuntze from the Violaceae toward neurodegenerative diseases ([Sonibare and Ayoola, 2015]). […] To make use of these beneficial effects it will be necessary to further investigate P ...

COc1ccc2cc3[n+](cc2c1OC)CCc1cc2c(cc1-3)OCO2 [berberine]
POP inhibition (in words) [1]: inhibit POP activity

C[N+]1(C)[C@H]2Cc3cc4c(cc3[C@@H]1Cc1cc3c(cc12)COC3)OCO4 [californidine]
POP inhibition (in words) [1]: inhibit POP activity

CC[C@H](C)[C@@H]1NC(=O)[C@H](C)NC(=O)[C@H](C)NC(=O)[C@H](CO)NC(=O)[C@H]([C@@H](C)CC)NC(=O)[C@@H]2CSSC[C@@H]3NC(=O)[C@H](C(C)C)NC(=O)[C@H](CCCCN)NC(=O)[C@H](CC(N)=O)NC(=O)[C@H](CCCCN)NC(=O)[C@@H]4CSSC[C@H](NC(=O)[C@H](CO)NC(=O)[C@H](CCC(=O)O)NC(=O)CNC(=O)[C@H](CSSC[C@H](NC(=O)CNC1=O)C(=O)N[C@@H](CO)C(=O)N4)NC(=O)[C@@H]1CCCN1C(=O)[C@H]([C@@H](C)CC)NC(=O)[C@H](C(C)C)NC(=O)CNC(=O)[C@H](CC(=O)O)NC(=O)[C@H](CCCNC(=N)N)NC(=O)[C@H](Cc1ccc(O)cc1)NC3=O)C(=O)N[C@@H](C(C)C)C(=O)N[C@@H](Cc1ccccc1)C(=O)N[C@@H]([C@@H](C)CC)C(=O)N1CCC[C@H]1C(=O)N2 [alca 1] (cyclo(AAIGCSCKNKVCYRDGVIPCGESCVFIPCIS); disulfide 5-20, 7-24, 12-29)
IC50 [2]: 8.5 ± 5.9 µM
Hill slope ([2]; sigmoidal inhibition curves of isolated peptides, four parameter non-linear regression, mean ± standard deviation, three or five biological experiments, respectively (alca 1, alca 2)): −1.2 ± 0.1

Cc1cc(=O)oc2cc(NC(=O)[C@@H]3CCCN3C(=O)CNC(=O)OCc3ccccc3)ccc12 [Z-Gly-Pro-amino-coumarin] (Cbz-Gly-Pro-{AMC})
K m [3]: 42.4 µM
Vmax [3]: 0.00015 µmol/min
substrate concentration above which precipitation of the substrate occurs [4]: Above 150 µM

CC[C@H](C)[C@@H]1NC(=O)[C@@H]2CSSC[C@@H]3NC(=O)[C@H](C(C)C)NC(=O)[C@H](CCCCN)NC(=O)[C@H](CC(N)=O)NC(=O)[C@H](CO)NC(=O)[C@@H]4CSSC[C@H](NC(=O)[C@H](CO)NC(=O)[C@H](CCC(=O)O)NC(=O)CNC(=O)[C@H](CSSC[C@H](NC(=O)CNC(=O)[C@H](CC(C)C)NC(=O)[C@H](C(C)C)NC(=O)CNC(=O)[C@H](CO)NC1=O)C(=O)N[C@@H](CO)C(=O)N4)NC(=O)[C@@H]1CCCN1C(=O)[C@H]([C@@H](C)CC)NC(=O)CNC(=O)[C@H](CC(N)=O)NC(=O)[C@H](CCCNC(=N)N)NC(=O)[C@H](Cc1ccc(O)cc1)NC3=O)C(=O)N[C@@H](C(C)C)C(=O)N[C@@H](Cc1ccccc1)C(=O)N[C@@H]([C@@H](C)CC)C(=O)N1CCC[C@H]1C(=O)N2 [alca 2] (cyclo(CGESCVFIPCISGVLGCSCSNKVCYRNGIP); disulfide 1-17, 5-19, 10-24)
IC50 [2]: 4.4 ± 0.7 µM

kalata B1: cyclotide, amongst others in V. tricolor L., Moebius type (cyclo(GLPVCGETCVGGTCNTPGCTCSWPVCTRN); disulfide 14-26, 5-19, 9-21; UniProt P56254 89-117, looked up)
IC50 ([1]; POP, ref Hellinger et al., 2015a, read-out: half maximal inhibitory concentration (IC50)): 5.6 µM

O=c1cc(-c2ccccc2)oc2cc(O)c(O)c(O)c12 [balcalein]
POP inhibition (in words) [1]: inhibit POP activity

O=C(CO)[C@@H]1CCCN1C(=O)[C@@H]1CCCN1C(=O)NCc1ccccc1 [JTP-4819]
clinical outcome (in words) [5]: failed to succeed or provided ambiguous outcomes in their clinical phase
